Targets include STLK3 (Homo sapiens, UniProt Q9UEW8); HIPK2 (Homo sapiens, UniProt Q9H2X6); CDK2 (Homo sapiens, UniProt P24941); AAK1 (Homo sapiens, UniProt Q2M2I8); ABL1 (Homo sapiens, UniProt P00519); AKT3 (Homo sapiens, UniProt Q9Y243); DAPK3 (Homo sapiens, UniProt O43293); MRCKa (Homo sapiens, UniProt Q5VT25); PAK4 (Homo sapiens, UniProt O96013).
What all share (experiment): biochemical
The next experiment deals with T1, EphB3 (Homo sapiens, UniProt P54753).
T1 sequence (P54753 1-998): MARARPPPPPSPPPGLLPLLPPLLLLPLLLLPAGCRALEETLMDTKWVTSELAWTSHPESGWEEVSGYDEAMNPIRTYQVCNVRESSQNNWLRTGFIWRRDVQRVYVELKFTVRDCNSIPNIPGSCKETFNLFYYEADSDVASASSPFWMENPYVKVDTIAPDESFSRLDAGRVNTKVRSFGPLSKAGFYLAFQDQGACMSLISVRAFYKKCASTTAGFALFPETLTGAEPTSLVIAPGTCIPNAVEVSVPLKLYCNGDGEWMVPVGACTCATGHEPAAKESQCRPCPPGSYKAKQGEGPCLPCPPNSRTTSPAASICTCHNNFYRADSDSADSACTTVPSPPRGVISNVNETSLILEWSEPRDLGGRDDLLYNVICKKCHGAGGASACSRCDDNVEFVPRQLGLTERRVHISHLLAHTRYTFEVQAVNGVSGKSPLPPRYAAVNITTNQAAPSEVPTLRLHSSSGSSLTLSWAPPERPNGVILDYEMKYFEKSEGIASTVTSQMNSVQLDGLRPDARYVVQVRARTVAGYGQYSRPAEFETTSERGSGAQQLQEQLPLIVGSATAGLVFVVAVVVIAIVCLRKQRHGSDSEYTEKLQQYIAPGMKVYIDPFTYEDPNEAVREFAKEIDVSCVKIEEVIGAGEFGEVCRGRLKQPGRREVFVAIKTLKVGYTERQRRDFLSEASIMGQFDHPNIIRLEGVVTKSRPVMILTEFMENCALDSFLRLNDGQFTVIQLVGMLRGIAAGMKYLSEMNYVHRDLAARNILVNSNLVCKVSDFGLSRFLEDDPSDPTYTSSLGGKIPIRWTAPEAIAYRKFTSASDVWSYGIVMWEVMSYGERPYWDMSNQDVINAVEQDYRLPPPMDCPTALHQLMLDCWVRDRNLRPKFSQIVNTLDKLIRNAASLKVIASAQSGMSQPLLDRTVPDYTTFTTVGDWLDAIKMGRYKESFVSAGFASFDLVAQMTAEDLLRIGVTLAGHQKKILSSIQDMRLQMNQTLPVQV

For a further experiment, the target named is T2, MAP2K7 (Homo sapiens, UniProt O14733).
T2 sequence (O14733 1-419): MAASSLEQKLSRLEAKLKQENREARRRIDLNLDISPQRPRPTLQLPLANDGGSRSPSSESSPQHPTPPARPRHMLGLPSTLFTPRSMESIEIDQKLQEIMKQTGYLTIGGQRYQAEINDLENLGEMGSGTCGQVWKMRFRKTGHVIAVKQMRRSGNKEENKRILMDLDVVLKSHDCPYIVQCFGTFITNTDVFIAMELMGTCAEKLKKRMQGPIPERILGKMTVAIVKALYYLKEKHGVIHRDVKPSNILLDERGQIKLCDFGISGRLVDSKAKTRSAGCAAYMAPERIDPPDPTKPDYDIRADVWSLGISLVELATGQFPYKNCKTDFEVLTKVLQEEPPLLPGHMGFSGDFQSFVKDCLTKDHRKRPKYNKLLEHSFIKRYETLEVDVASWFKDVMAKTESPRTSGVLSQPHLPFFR

For the next experiment, the target named is T3, FECH (Homo sapiens, UniProt P22830).
T3 sequence (P22830 1-423): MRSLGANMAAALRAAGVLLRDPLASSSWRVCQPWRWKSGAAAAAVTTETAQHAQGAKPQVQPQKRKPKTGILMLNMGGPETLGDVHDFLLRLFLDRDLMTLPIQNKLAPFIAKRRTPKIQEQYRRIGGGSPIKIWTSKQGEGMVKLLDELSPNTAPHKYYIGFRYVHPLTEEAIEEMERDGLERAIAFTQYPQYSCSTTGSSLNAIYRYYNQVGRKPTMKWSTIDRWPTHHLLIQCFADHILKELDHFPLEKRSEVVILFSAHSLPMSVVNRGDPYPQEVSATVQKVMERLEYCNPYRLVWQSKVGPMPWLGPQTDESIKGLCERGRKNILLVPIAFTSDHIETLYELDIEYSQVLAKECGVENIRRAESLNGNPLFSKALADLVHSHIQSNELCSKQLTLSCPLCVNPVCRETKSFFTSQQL

Read-outs that look alike come from different tables or passages of the source.

Sequence of DAPK3 (O43293 whole entry): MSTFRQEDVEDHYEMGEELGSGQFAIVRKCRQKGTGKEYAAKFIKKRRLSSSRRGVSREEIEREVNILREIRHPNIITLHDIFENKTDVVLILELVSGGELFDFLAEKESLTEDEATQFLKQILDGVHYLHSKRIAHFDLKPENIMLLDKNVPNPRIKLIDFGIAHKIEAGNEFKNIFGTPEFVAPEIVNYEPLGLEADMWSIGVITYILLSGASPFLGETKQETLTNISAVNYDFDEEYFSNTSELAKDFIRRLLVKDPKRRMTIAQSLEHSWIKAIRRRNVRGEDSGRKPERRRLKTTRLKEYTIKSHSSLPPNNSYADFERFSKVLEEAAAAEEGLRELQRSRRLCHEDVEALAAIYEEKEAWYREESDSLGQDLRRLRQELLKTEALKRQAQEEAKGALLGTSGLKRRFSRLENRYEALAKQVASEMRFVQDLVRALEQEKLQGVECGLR
Sequence of ABL1 (P00519 whole entry): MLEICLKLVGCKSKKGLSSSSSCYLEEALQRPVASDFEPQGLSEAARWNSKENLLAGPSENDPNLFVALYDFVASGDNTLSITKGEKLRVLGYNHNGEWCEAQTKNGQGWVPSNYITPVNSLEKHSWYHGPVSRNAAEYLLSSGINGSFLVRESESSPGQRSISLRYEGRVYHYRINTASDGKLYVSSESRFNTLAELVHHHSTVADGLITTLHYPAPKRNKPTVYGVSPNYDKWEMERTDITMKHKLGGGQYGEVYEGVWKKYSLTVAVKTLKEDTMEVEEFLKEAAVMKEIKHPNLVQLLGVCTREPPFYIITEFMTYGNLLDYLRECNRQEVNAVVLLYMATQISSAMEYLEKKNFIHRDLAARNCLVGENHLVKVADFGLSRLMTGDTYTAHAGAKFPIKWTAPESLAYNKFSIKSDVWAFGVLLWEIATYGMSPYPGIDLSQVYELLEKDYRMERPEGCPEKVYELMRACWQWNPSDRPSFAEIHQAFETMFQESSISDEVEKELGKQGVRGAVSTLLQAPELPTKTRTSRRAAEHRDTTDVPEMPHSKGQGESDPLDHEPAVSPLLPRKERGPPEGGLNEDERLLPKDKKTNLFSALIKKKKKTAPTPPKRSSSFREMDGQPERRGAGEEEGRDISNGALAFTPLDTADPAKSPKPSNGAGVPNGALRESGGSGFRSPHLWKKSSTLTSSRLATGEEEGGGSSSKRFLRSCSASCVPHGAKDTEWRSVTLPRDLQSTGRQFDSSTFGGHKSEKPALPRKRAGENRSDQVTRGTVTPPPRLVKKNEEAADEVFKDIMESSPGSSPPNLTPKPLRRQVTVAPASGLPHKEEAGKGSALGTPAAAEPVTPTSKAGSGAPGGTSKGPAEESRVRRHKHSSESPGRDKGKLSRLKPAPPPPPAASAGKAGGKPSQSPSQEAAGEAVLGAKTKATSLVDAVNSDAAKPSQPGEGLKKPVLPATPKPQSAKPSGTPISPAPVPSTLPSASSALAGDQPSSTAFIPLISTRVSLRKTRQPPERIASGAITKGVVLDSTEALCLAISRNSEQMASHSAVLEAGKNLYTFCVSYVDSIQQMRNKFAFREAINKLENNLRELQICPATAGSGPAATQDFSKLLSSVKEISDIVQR
Sequence of PAK4 (O96013 whole entry): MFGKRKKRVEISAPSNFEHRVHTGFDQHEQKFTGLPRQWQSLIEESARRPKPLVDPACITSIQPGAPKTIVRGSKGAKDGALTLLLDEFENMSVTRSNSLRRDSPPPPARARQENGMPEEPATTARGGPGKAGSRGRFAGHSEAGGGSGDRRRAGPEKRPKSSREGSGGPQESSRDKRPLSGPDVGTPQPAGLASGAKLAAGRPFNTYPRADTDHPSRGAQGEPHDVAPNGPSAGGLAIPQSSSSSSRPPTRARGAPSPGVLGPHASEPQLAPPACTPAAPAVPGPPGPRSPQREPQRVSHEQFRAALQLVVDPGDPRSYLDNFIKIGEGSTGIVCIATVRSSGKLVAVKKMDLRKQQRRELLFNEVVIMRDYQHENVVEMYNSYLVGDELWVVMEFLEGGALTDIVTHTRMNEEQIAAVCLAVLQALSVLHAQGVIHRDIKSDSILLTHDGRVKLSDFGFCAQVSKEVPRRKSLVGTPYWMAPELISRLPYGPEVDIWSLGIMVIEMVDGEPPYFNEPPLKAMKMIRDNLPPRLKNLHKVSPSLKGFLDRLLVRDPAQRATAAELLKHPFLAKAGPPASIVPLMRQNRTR
Sequence of AAK1 (Q2M2I8 whole entry): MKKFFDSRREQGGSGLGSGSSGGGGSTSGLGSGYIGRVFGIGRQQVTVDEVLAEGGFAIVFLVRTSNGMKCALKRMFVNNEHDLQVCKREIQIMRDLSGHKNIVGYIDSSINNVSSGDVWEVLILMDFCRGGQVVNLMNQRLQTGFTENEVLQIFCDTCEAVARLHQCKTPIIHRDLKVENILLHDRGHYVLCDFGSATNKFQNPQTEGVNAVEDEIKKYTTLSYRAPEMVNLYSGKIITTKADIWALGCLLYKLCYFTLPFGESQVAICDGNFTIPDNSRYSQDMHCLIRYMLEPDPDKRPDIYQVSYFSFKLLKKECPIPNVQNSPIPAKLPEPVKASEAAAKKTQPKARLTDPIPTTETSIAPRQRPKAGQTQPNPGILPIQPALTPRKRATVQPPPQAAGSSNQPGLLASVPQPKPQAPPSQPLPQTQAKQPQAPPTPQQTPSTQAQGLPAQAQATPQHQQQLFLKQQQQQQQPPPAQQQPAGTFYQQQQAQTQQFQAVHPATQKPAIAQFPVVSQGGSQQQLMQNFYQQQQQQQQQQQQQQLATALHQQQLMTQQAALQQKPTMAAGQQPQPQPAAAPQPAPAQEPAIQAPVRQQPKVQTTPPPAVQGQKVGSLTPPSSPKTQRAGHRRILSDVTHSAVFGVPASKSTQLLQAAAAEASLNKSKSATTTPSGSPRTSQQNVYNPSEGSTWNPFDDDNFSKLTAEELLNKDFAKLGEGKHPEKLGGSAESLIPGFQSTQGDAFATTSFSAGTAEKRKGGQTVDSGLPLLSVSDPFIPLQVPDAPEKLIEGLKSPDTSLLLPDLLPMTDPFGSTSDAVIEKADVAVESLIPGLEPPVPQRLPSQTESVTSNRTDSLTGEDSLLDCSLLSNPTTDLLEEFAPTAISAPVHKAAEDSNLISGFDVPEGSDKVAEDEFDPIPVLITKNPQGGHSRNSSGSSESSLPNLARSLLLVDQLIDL
Sequence of AKT3 (Q9Y243 whole entry): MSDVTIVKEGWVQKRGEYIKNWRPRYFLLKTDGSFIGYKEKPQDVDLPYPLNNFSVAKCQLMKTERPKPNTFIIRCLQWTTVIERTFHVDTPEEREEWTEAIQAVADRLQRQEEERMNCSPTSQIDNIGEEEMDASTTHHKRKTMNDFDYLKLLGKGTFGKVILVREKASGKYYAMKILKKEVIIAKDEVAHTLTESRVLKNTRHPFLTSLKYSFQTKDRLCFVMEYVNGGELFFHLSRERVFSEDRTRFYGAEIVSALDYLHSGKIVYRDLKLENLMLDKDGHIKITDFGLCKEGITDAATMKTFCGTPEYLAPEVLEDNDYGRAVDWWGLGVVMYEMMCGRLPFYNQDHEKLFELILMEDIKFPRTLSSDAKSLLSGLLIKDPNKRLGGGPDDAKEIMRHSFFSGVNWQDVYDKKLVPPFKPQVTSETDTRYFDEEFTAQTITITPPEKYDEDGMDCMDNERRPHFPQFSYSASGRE
Sequence of HIPK2 (Q9H2X6 whole entry): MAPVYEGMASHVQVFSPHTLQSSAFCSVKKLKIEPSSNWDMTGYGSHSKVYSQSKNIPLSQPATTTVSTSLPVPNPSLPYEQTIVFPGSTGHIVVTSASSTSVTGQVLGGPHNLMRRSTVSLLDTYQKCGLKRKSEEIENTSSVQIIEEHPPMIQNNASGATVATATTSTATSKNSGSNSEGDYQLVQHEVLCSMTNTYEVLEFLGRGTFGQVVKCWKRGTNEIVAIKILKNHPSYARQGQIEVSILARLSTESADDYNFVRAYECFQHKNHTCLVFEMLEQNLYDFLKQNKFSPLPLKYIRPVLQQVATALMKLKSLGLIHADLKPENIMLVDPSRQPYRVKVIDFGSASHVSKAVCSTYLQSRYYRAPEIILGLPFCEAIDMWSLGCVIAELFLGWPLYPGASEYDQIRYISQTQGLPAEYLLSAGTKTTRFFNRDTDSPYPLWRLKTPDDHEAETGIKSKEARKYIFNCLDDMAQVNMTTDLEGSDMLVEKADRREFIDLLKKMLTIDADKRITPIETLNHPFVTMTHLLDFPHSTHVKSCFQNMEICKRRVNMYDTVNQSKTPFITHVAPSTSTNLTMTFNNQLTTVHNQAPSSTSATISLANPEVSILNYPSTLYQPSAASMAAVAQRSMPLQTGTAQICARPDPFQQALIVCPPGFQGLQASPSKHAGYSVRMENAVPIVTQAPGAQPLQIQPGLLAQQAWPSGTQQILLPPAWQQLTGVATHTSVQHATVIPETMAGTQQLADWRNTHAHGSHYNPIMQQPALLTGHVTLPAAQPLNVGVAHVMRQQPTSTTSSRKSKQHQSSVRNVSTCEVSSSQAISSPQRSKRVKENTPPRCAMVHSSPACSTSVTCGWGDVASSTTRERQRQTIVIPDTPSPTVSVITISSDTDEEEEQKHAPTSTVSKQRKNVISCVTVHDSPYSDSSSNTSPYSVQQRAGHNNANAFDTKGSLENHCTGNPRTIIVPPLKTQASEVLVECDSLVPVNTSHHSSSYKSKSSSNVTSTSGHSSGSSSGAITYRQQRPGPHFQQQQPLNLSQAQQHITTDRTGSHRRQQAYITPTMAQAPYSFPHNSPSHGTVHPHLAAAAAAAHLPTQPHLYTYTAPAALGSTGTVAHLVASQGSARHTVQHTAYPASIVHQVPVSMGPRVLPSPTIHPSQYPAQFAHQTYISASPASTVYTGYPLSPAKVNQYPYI

`CNc1ncc2cc(-c3cc(Cl)ccc3Cl)c(=O)n(CCCCN)c2n1` [compound 8, 8-(4-Aminobutyl)-6-(2,5-dichlorophenyl)-2-(methylamino)pyrido[2,3-d]pyrimidin-7(8H)-one]: the ΔTm at 10 µM at STLK3 (read-out: dTm 8) is 0.2 °C; at HIPK2 (read-out: dTm 8), 0.7 °C; on CDK2 (read-out: dTm 8), 0.6 °C; at EphB3 (read-out: dTm 8) it was 4.1 °C; on AAK1 (read-out: dTm 8), 0.8 °C; at MAP2K7 (read-out: dTm 8), 0.6 °C. For the same molecule, the ΔTm at 10 µM on ABL1 (read-out: dTm 8) is 6.2 °C; at AKT3 (read-out: dTm 8) it was 0 °C; on DAPK3 (read-out: dTm 8) it was -0.1 °C; at MRCKa (read-out: dTm 8), 0 °C; at FECH (read-out: dTm 8), -1.7 °C.
Turning to `CNc1ncc2cc(-c3cc(Cl)ccc3Br)c(=O)n(CCCCN)c2n1` [compound 10, 8-(4-Aminobutyl)-6-(2-bromo-5-chlorophenyl)-2-(methylamino)pyrido[2,3-d]pyrimidin-7(8H)-one], the ΔTm at 10 µM at STLK3 (read-out: dTm 10) came to 0.3 °C; on HIPK2 (read-out: dTm 10), 0.8 °C; on CDK2 (read-out: dTm 10), 0.6 °C; at PAK4 (read-out: dTm 10), 1.3 °C; at EphB3 (read-out: dTm 10), 4.6 °C; at AAK1 (read-out: dTm 10), 0.5 °C. The ΔTm at 10 µM is 0.4 °C on MAP2K7 (read-out: dTm 10); 6.2 °C on ABL1 (read-out: dTm 10); -0.1 °C on AKT3 (read-out: dTm 10); 0.1 °C on DAPK3 (read-out: dTm 10); -0.2 °C at MRCKa (read-out: dTm 10); -1.7 °C at FECH (read-out: dTm 10).
Turning to `CNc1ncc2cc(-c3cc(Br)ccc3Br)c(=O)n(CCCCN)c2n1` [compound 11, 8-(4-Aminobutyl)-6-(2,5-dibromophenyl)-2-(methylamino)pyrido[2,3-d]pyrimidin-7(8H)-one], the ΔTm at 10 µM at STLK3 (read-out: dTm 11) amounted to 0.3 °C; at HIPK2 (read-out: dTm 11) it was 0.8 °C; on CDK2 (read-out: dTm 11) it was 0.7 °C; on PAK4 (read-out: dTm 11) it was 1.1 °C; on EphB3 (read-out: dTm 11), 3 °C; on AAK1 (read-out: dTm 11) it was 0.4 °C. Also, the ΔTm at 10 µM on MAP2K7 (read-out: dTm 11) was 0.5 °C; at ABL1 (read-out: dTm 11), 4.8 °C; at AKT3 (read-out: dTm 11), -0.1 °C; on DAPK3 (read-out: dTm 11) it was -0.2 °C; at MRCKa (read-out: dTm 11) it was -0.2 °C; at FECH (read-out: dTm 11), -1.6 °C.
Turning to `CNc1ncc2cc(-c3cc(C(F)(F)F)ccc3Cl)c(=O)n(CCCCN)c2n1` [compound 9, 8-(4-Aminobutyl)-6-(2-chloro-5-(trifluoromethyl)phenyl)-2-(methylamino)pyrido[2,3-d]pyrimidin-7(8H)-one], the ΔTm at 10 µM is 0.3 °C on STLK3 (read-out: dTm 9); 0.7 °C at HIPK2 (read-out: dTm 9); 0.3 °C on CDK2 (read-out: dTm 9); 0.5 °C at PAK4 (read-out: dTm 9); 2.3 °C at EphB3 (read-out: dTm 9); 0 °C at AAK1 (read-out: dTm 9). Moreover, the ΔTm at 10 µM at MAP2K7 (read-out: dTm 9) is 0.4 °C; on ABL1 (read-out: dTm 9) it was 2.5 °C; on AKT3 (read-out: dTm 9), 0 °C; at DAPK3 (read-out: dTm 9) it was -0.1 °C; at MRCKa (read-out: dTm 9), -0.5 °C; on FECH (read-out: dTm 9), -1.7 °C.
For the molecule `CNc1ncc2cc(-c3cc(F)c(-c4cccc(C)n4)cc3F)c(=O)n(CCCCN)c2n1` [compound 12, 8-(4-Aminobutyl)-6-(2,5-difluoro-4-(6-methylpyridin-2-yl)phenyl)-2-(methylamino)pyrido[2,3-d]pyrimidin-7(8H)-one], the ΔTm at 10 µM on STLK3 (read-out: dTm 12) turned out to be 12.1 °C; on HIPK2 (read-out: dTm 12), 0.4 °C; on CDK2 (read-out: dTm 12) it was 1.1 °C; at PAK4 (read-out: dTm 12), 1.8 °C; on EphB3 (read-out: dTm 12), 2.5 °C; on AAK1 (read-out: dTm 12), 0.5 °C. Further, the ΔTm at 10 µM is 1.7 °C on MAP2K7 (read-out: dTm 12); 3.5 °C at ABL1 (read-out: dTm 12); 1.2 °C on AKT3 (read-out: dTm 12); 0.3 °C on DAPK3 (read-out: dTm 12); -0.8 °C on MRCKa (read-out: dTm 12); -0.6 °C on FECH (read-out: dTm 12).

Source of the values: article doi:10.1101/2023.03.24.534094v2 (biorxiv, 2023).
